# Results from patent publication US11319305B2, “Pyrimidine sulfamide derivative and preparation method and medical application thereof” (SHIJIAZHUANG SAGACITY NEW DRUG DEVELOPMENT CO., LTD., priority 2017, dated 2022).
# How the values were obtained:
# [1] = biological target: T1, Human Pregnane X Receptor (PXR) (Homo sapiens, UniProt O75469); experiment: Human pregnane X receptor (PXR) assay, induction of PXR-mediated CYP3A expression in DPX2 cells; type: cell-based
# T1 construct: host or cells: DPX2 cells
# T1 sequence (O75469 1-434): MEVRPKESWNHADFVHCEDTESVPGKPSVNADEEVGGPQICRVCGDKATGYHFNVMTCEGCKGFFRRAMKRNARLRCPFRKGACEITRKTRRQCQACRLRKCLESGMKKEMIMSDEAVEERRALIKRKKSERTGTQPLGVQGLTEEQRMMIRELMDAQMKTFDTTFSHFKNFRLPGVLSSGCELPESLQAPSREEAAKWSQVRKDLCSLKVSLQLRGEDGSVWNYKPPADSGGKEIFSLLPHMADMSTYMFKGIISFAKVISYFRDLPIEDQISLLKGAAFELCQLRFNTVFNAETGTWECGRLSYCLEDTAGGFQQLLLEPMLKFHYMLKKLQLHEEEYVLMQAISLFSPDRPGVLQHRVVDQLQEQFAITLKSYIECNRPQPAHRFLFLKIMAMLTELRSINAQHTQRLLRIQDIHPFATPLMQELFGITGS
# Procedure: Experimental Embodiment 3: Human Pregnane X Receptor (PXR) Assay
# The effect of the compounds on the induction of PXR-mediated CYP3A expression was evaluated.
# 1. DPX2 cells were thawn under sterile conditions.
# 2. DPX2 cell solution was distributed in 96-well plate (100 μL/well), and the plate was placed in a 5% CO2/37° C. incubator overnight.
# 3. Quantitative feeding medium was thawn in a 37° C. water bath. Positive control rifampin was thawn at room temperature. A series of test compounds and positive control dilutions were prepared in quantitative feeding medium. The cells were carefully aspirated from each wells without disturbing the cells during aspiration and the medium was discarded. 100 μL of each test compound concentration was transferred to pre-labeled wells. The operation of the positive control group and the blank group were the same. The plate was placed back into the incubator for 24 hours exposure.
# (1) 7 μL of Luciferin-IPA was added to […] feeding medium, the mixture was mixed by inverting, and poured into a Luciferin-IPA reagent tank.
# (2) The 96-well plate was taken out from the incubator, and the media was carefully aspirated from each wells. 50 μL of the Luciferin-IPA reagent was added to each wells, and the cell plate was placed back into the incubator for 60 minutes.
# (3) During incubation, the P450-Glo buffer was poured into the Luciferin detection reagent, and the mixture was mixed by inverting.
# (4) The 96-well plate was taken out from the incubator, and 40 μL of solution from each well was transferred into the corresponding white 96-well plate, and the corresponding position of each wells was consistent with the original cell plate. […]
# (8) After incubation with Luciferin detection reagent for 20 minutes, a photometer (set 1-5 seconds. Readout Time) was used to measure the luminescence of each wells of the white 96-well plate. […]
# (10) After incubating for 60 minutes at 37° C., the original 96-well plate was taken out of the incubator. The reader was set to the fluorescence mode, the excitation wavelength was set to 380-400 nm, the emission wavelength was set to 505 nm, and the fluorescence intensity of each wells was measured.
# (11) The cell plate was taken out of the enzyme reader, and 100 μL of ONE-Glo™ detection reagent was added to each wells. […]
# (12) The enzyme reader was set to 5 seconds for pre-shaking and 5 seconds for wells reading, and the fluorescence intensity in each hole was measured. […]
# The positive control was rifampicin, six concentrations were tested in each experiment. The data was analyzed using Prism to generate a concentration-response curve and the EC50 value of the compound was calculated.
# CYP1A2 = biological target: T2, CYP1A2 (Homo sapiens, UniProt P05177); experiment: Human liver microsomal cytochrome P450 isozyme inhibition assay, CYP1A2; type: in vitro ADME; details: human liver microsomes
# T2 construct: Mixed human liver microsomes (HLM) were purchased from Corning Inc; tissue Corning Inc; host or cells: pooled human liver microsomes
# T2 sequence (P05177 1-516): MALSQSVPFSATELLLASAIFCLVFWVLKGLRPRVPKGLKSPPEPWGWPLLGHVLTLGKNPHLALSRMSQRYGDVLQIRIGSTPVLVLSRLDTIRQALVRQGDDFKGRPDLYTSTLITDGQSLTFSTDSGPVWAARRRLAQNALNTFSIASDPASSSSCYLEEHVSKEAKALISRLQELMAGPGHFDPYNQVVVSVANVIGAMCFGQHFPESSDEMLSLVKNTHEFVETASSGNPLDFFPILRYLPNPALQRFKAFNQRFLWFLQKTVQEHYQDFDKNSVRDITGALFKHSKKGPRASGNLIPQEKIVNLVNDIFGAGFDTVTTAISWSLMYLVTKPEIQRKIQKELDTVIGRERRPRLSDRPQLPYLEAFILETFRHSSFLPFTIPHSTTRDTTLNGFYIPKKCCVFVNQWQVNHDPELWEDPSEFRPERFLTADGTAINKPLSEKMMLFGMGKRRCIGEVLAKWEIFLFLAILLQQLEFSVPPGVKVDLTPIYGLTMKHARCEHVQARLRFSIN
# Procedure: (§1) Experimental Embodiment 4: Human Liver Microsomal Cytochrome P450 Isozyme Inhibition Assay The purpose of the assay was to evaluate the inhibitory activity of the samples against human liver microsomal cytochrome P450 isozyme (CYP1A2, CYP2C9, CYP2C19, CYP2D6 and CYP3A4) using the 5-in-1 probe substrate of the CYP isozyme. Mixed human liver microsomes (HLM) were purchased from Corning Inc. (Steuben, N.Y., USA) and stored below −80° C. before use. The test compound working solution which has been diluted into serial concentrations was added to an incubation system containing human liver microsomes, probe substrates and circulating system cofactors, and a control containing solvent without the test compound was used as the enzyme activity control (100%). The concentration of the metabolite produced by the probe substrate in the sample was determined using a liquid chromatography-tandem mass spectrometry (LC-MS/MS) method. Nonlinear regression analysis was performed on the average percent activity versus concentration of subjects using SigmaPlot (V.11). The IC50 value was calculated by a three-parameter or four-parameter inverse-logarithmic equation.
# CYP2C9 = biological target: T3, CYP2C9 (Homo sapiens, UniProt P11712); experiment: Human liver microsomal cytochrome P450 isozyme inhibition assay, CYP2C9; type: in vitro ADME; details: human liver microsomes
# T3 construct: Mixed human liver microsomes (HLM) were purchased from Corning Inc; tissue Corning Inc; host or cells: pooled human liver microsomes
# Procedure: as §1
# CYP2C19 = biological target: T4, CYP2C19 (Homo sapiens, UniProt P33261); experiment: Human liver microsomal cytochrome P450 isozyme inhibition assay, CYP2C19; type: in vitro ADME; details: human liver microsomes
# T4 construct: Mixed human liver microsomes (HLM) were purchased from Corning Inc; tissue Corning Inc; host or cells: pooled human liver microsomes
# Procedure: as §1
# CYP2D6 = biological target: T5, CYP2D6 (Homo sapiens, UniProt P10635); experiment: Human liver microsomal cytochrome P450 isozyme inhibition assay, CYP2D6; type: in vitro ADME; details: human liver microsomes
# T5 construct: Mixed human liver microsomes (HLM) were purchased from Corning Inc; tissue Corning Inc; host or cells: pooled human liver microsomes
# Procedure: as §1
# CYP3A4 = biological target: T6, CYP3A4 (Homo sapiens, UniProt P08684); experiment: Human liver microsomal cytochrome P450 isozyme inhibition assay, CYP3A4; type: in vitro ADME; details: human liver microsomes
# T6 construct: Mixed human liver microsomes (HLM) were purchased from Corning Inc; tissue Corning Inc; host or cells: pooled human liver microsomes
# Procedure: as §1
# [2] = biological target: T7, bile salt transport pump (BSEP) (Homo sapiens, UniProt O95342); experiment: Inhibition test on bile salt transfer pump (BSEP), taurocholic acid uptake in BSEP-Hi5-VT vesicles; type: in vitro ADME
# T7 construct: purchased Solvo Biotechnology SB-BSEP-Hi5-VT; host or cells: Hi5 insect cells (read from the product name; own knowledge)
# Procedure: Prepared with buffer A, 8.16 mM ATP and 4.08 μM taurocholic acid were contained in 12 mL buffer A.
# Prepared with buffer A, 8.16 mM AMP, 4.08 μM taurocholic acid 12 mL buffer A were contained in buffer A.
# A solution containing BSEP-Hi5-VT 5 μg/μL was prepared with buffer A.
# The compound was diluted to 100 mM with DMSO; then serially diluted 3-fold for an 11-point dilution; the minimum concentration was 0.169 μM.
# Positive reference Glyburide was diluted to 20 mM with DMSO; then serially diluted 2-fold for an 11-point dilution; the minimum concentration was 19.5
# 0.3 μL of a solution of the compound in DMSO or a diluted DMSO solution were transferred into corresponding wells of the compound plate using ECHO, respectively.
# 14.7 μL of ATP buffer was added to the compound and the corresponding wells of zero percent effect (ZPE), respectively.
# 14.7 μL of AMP buffer was added to the corresponding wells of 100% effect (HPE), respectively.
# The plate was shaked for 10 minutes at 25° C.
# 15 μL of BSEP-H15-VT Vesicle solution was added to all wells, respectively, and the plate was shaked for another 40 minutes at 25° C.
# 6.5 μL 0.5 M ethylenediaminetetraacetic acid (EDTA) solution was added to all wells immediately, followed by addition of 65 μL of buffer B, and the whole reaction was completed.
# 7.95 μL of liquid was transferred to the filter plate from the compound plate at the end of the reaction using an instrument.
# After placing the liquid receiving plate under the filter plate, the liquid was removed using a centrifuge and the receiving plate liquid was discarded.
# 9.90 μL of buffer B was added to the filter plate. After placing the liquid receiving plate under the filter plate, the liquid was removed using a centrifuge, and the receiving plate liquid was discarded, and filter plate was washed for three times in total.
# The filter plate was dried overnight.
# On the next day, 80 μL of methanol/water (80/20, volume ratio) solution was added to the filter plate.
# The plate was shaked for 15 minutes after the filter plate was attached to the membrane.
# A new liquid receiving plate was placed under the filter plate, and the filter plate was centrifuged for 5 minutes, and all liquids in the filter plate were filtrated into the receiving plate.
# 15 μL of internal standard solution was added to each wells in the liquid receiving plate, and the plate was sealed with a membrane.
# The content of taurocholic acid in the receiving plate was detected using LC/MS/MS.
# Several concentrations were tested in each experiments. The data were analyzed using Prism to generate a concentration-response curve, and IC50 values of the compounds were calculated.
# [3] = system: human liver microsomal cytochrome P450 isozyme (CYP1A2, CYP2C9, CYP2C19, CYP2D6 and CYP3A4); experiment: Human liver microsomal cytochrome P450 isozyme inhibition assay, summary over the main isozymes; type: in vitro ADME; details: human liver microsomes
# Procedure: as §1
# T3 sequence (P11712 whole entry): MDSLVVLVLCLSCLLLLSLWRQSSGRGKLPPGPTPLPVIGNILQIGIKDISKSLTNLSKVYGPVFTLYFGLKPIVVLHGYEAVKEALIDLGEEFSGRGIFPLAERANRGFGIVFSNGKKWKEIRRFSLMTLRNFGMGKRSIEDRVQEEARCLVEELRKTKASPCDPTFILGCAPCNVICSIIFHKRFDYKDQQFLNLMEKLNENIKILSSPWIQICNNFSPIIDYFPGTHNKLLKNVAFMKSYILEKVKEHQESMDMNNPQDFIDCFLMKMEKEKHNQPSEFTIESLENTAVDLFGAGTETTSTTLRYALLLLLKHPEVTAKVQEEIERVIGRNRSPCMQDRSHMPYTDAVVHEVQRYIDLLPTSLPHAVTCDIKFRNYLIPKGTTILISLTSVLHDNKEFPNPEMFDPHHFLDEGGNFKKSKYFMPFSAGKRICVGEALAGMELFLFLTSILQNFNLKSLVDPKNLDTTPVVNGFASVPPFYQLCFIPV
# T7 sequence (O95342 whole entry): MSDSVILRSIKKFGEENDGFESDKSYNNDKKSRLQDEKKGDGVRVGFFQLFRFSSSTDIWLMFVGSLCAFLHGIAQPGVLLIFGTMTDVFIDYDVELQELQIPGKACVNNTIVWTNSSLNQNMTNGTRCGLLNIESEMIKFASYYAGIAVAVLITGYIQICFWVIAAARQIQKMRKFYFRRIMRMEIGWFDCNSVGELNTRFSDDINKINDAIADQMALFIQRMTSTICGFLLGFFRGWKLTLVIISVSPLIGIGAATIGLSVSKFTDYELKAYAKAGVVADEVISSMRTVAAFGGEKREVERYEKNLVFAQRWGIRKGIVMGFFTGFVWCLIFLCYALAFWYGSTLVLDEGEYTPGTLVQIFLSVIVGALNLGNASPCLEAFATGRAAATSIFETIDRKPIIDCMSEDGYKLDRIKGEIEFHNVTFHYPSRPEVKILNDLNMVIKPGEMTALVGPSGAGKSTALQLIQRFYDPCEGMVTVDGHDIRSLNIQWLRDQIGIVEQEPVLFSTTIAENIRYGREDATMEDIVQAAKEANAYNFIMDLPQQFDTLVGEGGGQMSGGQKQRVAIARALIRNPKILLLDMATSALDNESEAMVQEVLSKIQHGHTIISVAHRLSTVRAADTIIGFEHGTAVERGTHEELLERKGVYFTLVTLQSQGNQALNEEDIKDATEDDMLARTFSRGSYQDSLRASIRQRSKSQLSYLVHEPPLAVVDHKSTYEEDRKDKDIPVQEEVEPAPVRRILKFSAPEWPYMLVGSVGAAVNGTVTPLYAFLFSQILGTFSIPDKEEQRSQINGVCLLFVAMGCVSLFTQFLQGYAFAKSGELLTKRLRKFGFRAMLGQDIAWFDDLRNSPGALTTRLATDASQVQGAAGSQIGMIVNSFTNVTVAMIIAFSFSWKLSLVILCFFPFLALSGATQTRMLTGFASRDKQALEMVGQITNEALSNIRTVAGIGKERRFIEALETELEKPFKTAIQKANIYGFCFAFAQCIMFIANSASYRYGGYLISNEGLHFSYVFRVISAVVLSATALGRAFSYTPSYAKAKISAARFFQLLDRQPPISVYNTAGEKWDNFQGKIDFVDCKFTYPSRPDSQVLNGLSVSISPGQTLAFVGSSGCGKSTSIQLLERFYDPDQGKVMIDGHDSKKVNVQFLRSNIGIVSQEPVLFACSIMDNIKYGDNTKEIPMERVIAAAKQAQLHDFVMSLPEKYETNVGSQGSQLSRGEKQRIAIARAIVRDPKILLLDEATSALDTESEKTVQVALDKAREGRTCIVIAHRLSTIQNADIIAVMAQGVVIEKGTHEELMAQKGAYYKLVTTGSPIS
# T6 sequence (P08684 whole entry): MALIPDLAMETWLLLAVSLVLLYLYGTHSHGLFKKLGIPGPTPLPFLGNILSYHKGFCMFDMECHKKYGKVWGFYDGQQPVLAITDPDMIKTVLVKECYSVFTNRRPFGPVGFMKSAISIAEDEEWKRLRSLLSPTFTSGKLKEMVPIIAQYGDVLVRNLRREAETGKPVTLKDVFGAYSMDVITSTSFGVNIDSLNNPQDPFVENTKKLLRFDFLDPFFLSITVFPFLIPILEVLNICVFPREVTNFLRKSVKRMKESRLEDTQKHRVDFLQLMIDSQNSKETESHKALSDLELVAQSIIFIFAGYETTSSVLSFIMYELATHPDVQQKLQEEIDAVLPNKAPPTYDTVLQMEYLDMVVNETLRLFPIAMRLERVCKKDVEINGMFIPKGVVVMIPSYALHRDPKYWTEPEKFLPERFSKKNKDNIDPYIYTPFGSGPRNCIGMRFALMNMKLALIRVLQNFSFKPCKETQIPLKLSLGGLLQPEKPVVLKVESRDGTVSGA
# T4 sequence (P33261 whole entry): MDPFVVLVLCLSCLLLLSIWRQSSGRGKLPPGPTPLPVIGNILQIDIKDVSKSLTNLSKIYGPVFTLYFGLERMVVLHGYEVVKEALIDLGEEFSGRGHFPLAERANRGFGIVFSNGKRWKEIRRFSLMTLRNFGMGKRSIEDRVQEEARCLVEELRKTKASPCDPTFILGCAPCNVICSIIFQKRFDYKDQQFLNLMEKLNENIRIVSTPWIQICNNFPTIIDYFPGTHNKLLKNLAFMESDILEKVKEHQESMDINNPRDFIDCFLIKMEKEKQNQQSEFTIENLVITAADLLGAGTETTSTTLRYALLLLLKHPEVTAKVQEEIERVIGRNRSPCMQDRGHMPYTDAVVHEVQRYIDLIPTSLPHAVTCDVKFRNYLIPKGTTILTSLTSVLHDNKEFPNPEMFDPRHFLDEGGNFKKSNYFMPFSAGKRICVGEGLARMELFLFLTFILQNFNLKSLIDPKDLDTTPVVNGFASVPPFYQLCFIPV
# T5 sequence (P10635 whole entry): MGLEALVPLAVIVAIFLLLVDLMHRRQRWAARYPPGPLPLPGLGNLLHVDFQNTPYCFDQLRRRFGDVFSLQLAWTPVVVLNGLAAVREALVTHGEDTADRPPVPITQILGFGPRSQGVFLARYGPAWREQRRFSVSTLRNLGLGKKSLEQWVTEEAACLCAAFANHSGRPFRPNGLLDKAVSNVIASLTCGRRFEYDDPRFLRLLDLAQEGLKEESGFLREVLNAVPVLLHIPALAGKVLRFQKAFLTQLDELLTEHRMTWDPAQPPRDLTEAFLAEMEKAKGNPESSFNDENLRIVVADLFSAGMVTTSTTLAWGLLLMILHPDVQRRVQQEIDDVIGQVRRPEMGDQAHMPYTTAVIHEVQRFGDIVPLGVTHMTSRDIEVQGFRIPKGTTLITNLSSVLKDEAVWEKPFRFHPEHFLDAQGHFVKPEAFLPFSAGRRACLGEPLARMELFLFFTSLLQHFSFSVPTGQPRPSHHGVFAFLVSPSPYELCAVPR
structure (smiles),measurement,setting,value
"CCCNS(=O)(=O)Nc1ncnc(OCCOc2ncc(Br)cn2)c1-c1ccc(Br)cc1 [macitentan, reference compound]",induction effect on PXR-mediated CYP3A expression (in words),[1],relatively strong induction effect
same,EC50,"[1]; DPX2 cells, 24 hours exposure, ± is calculation error of simulation curve, read-out: EC50, induction effect on PXR-mediated CYP3A expression",6.34 ± 0.17 µM
same,IC50,CYP1A2,37 µM
same,IC50,CYP2C9,7.5 µM
same,inhibitory effects on the isozymes CYP2C9 (in words),CYP2C9,moderate
same,IC50,CYP2C19,31 µM
same,IC50,CYP2D6,> 50 µM
same,IC50,CYP3A4,23 µM
same,inhibitory effect on the bile salt transport pump (BSEP) (in words),[2],strong
same,IC50,"[2]; substrate taurocholic acid, read-out: IC50, inhibitory effect on the bile salt transport pump (BSEP)",0.281 µM
same,inhibitory effects on four main isozymes of CYP (in words),[3],weak
